Laboratory results: ChEMBL document CHEMBL3272273, “Synthesis and pharmacological activity and some derivatives of 1-phenyl-1,2,3,4-tetrahydro-5H-1,4-benzodiazepin-5-one” (J Med Chem, 1978)

Tests used:
[1] = tested on: Mus musculus; assay: Toxicity in ip dosed albino mouse assessed as barbiturate-induced sleep by measuring loss of righting reflex administered 45 mins before barbiturate challenge relative to control; assay type: organism-based; conditions: in vivo, 0.75 h
[2] = tested on: Mus musculus; assay: Toxicity in albino mouse assessed as body-temperature variation at 10 mg/kg, ip measured 20 mins after dl-amphetamine sulfate injection dosed 30 mins before dl-amphetamine sulfate injection; assay type: organism-based; design: dose 10 mg/kg, route intraperitoneal; conditions: in vivo
[3] = tested on: Mus musculus; assay: Toxicity in albino mouse assessed as translatory movements at 10 mg/kg, ip relative to control; assay type: organism-based; design: dose 10 mg/kg, route intraperitoneal; conditions: in vivo
[4] = tested on: Mus musculus; assay: Toxicity in ip dosed mouse assessed as sedative action; assay type: organism-based; conditions: in vivo
[5] = tested on: Ileum; assay: Antiacetylcholine activity in guinea pig ileum assessed as dose required to decrease 50 to 100% of acetylcholine-induced effect treated 5 mins before acetylcholine addition; assay type: functional, Cavia porcellus
[6] = tested on: Ileum; assay: Antihistamine activity in guinea pig ileum assessed as dose required to decrease 50 to 100% of histamine induced effect treated 5 mins before histamine addition; assay type: functional, Cavia porcellus
[7] = Acute toxicity in ip dosed albino mouse measured within 24 hrs; assay type: organism-based; conditions: in vivo
[8] = tested on: Mus musculus; assay: Toxicity in ip dosed albino mouse assessed as barbiturate-induced sleep by measuring loss of righting reflex relative to control; assay type: organism-based; conditions: in vivo
[9] = tested on: Mus musculus; assay: Neurotoxicity in albino mouse at 10 mg/kg, po up to 5 mins by rotorod test relative to control; assay type: toxicity, organism-based; design: dose 10 mg/kg, route oral; conditions: in vivo
[10] = tested on: Mus musculus; assay: Neurotoxicity in albino mouse at 5 mg/kg, po up to 5 mins by rotorod test relative to control; assay type: toxicity, organism-based; design: dose 5 mg/kg, route oral; conditions: in vivo
[11] = tested on: Mus musculus; assay: Toxicity in albino mouse assessed as body-temperature variation at 5 mg/kg, ip measured 20 mins after dl-amphetamine sulfate injection dosed 30 mins before dl-amphetamine sulfate injection; assay type: organism-based; design: dose 5 mg/kg, route intraperitoneal; conditions: in vivo
[12] = Antitrypatamine activity in isolated Wistar rat caudal artery assessed as dose required to decrease 20 to 50% of […]-induced effect per 6 mL/min after 15 mins; assay type: functional
[13] = tested on: Mus musculus; assay: Toxicity in albino mouse assessed as translatory movements at 5 mg/kg, ip relative to control; assay type: organism-based; design: dose 5 mg/kg, route intraperitoneal; conditions: in vivo
[14] = tested on: Mus musculus; assay: Anticonvulsant activity in ip dosed albino mouse assessed as dose causing >25% increase in maximal electroshock-induced maximal extensor seizure relative to untreated control; assay type: functional
[15] = Antinoradrenaline activity in isolated Wistar rat caudal artery assessed as dose required to decrease 20 to 50% of noradrenaline-induced effect per 6 mL/min after 15 mins; assay type: functional
[16] = tested on: Mus musculus; assay: Toxicity in ip dosed albino mouse assessed as dose required to increase 25% of dl-amphetamine sulfate-induced death; assay type: organism-based; conditions: in vivo
[17] = tested on: Mus musculus; assay: Anticonvulsant activity in ip dosed albino mouse assessed as dose causing total prevention of maximal electroshock-induced maximal extensor seizure; assay type: functional

Nc1ccc2c(c1)C(=O)NCCN2c1ccc([N+](=O)[O-])cc1
Activity [1]: 50%
temperature change [2]: 1.2 °C
Activity [3]: -15%
Activity [4]: Non-toxic
Activity [5]: 50 µg/mL
Activity [6]: 200 µg/mL
LD50 at 24 h [7]: > 400 mg/kg
Activity [8]: 70%
Activity [9]: 39%

Nc1ccc(N2CCNC(=O)c3ccccc32)cc1
Activity [1]: 50%
temperature change [2]: 1.4 °C
Activity [3]: 2%
Activity [4]: Non-toxic
Activity [5]: 200 µg/mL
Activity [6]: 200 µg/mL
LD50 at 24 h [7]: > 400 mg/kg
Activity [8]: 90%
Activity [9]: -20%

C[N+](C)(C)CCN1CCN(c2ccccc2)c2ccccc2C1=O.[I-]
Activity [1]: 15%
Activity [10]: -21%
temperature change [11]: -0.3 °C
Activity [12]: 50 µg/min
Activity [4]: Non-toxic
Activity [13]: 20%
Activity [5]: 50 µg/mL
Activity [6]: 50 µg/mL
Activity [14]: 15 mg/kg
LD50 at 24 h [7]: 35 mg/kg
Activity [15]: 50 µg/min
Activity [8]: -40%
Activity [16]: 5 mg/kg

C[N+](C)(C)CCCN1CCN(c2ccccc2)c2ccccc2C1=O.[I-]
Activity [1]: 10%
Activity [10]: 70%
temperature change [11]: 1.2 °C
Activity [12]: 50 µg/min
Activity [4]: Non-toxic
Activity [13]: -5%
Activity [5]: 50 µg/mL
Activity [6]: 50 µg/mL
Activity [14]: 10 mg/kg
LD50 at 24 h [7]: 50 mg/kg
Activity [15]: 100 µg/min
Activity [8]: -25%
Activity [16]: 5 mg/kg

CC(C[N+](C)(C)C)N1CCN(c2ccccc2)c2ccccc2C1=O.[I-] (stereo unspecified)
Activity [1]: 5%
Activity [10]: -7%
temperature change [11]: 0.3 °C
Activity [12]: 15 µg/min
Activity [4]: Non-toxic
Activity [13]: 1%
Activity [5]: 200 µg/mL
Activity [6]: 50 µg/mL
Activity [14]: 5 mg/kg
LD50 at 24 h [7]: 15 mg/kg
Activity [15]: 50 µg/min
Activity [8]: -15%

C[N+]1(CCN2CCN(c3ccccc3)c3ccccc3C2=O)CCCC1.[I-]
Activity [1]: 5%
temperature change [11]: 1.6 °C
Activity [12]: 50 µg/min
Activity [4]: Non-toxic
Activity [13]: -8%
Activity [5]: 100 µg/mL
Activity [6]: 50 µg/mL
Activity [14]: 3 mg/kg
LD50 at 24 h [7]: 10 mg/kg
Activity [15]: 5 µg/min
Activity [8]: 30%
Activity [9]: 11%
Activity [16]: 3 mg/kg

C[N+]1(CCN2CCN(c3ccccc3)c3ccccc3C2=O)CCCCC1.[I-]
Activity [1]: 3%
temperature change [11]: 0.9 °C
Activity [12]: 50 µg/min
Activity [4]: Non-toxic
Activity [13]: -20%
Activity [5]: 50 µg/mL
Activity [6]: 200 µg/mL
LD50 at 24 h [7]: 15 mg/kg
Activity [15]: 25 µg/min
Activity [8]: 20%
Activity [9]: 8%

CCN(CC)CCN1CCN(c2ccccc2)c2ccccc2C1=O
Activity [1]: 10%
Activity [3]: 1%
Activity [12]: 50 µg/min
Activity [4]: Non-toxic
Activity [5]: 100 µg/mL
Activity [6]: 100 µg/mL
Activity [14]: 5 mg/kg
LD50 at 24 h [7]: 75 mg/kg
Activity [15]: 80 µg/min
Activity [8]: 40%
Activity [9]: 11%

CN(C)CCN1CCN(c2ccccc2)c2ccccc2C1=O
Activity [1]: 15%
temperature change [2]: 0.6 °C
Activity [3]: -30%
Activity [12]: 50 µg/min
Activity [4]: Non-toxic
Activity [5]: 100 µg/mL
Activity [6]: 50 µg/mL
Activity [14]: 50 mg/kg
LD50 at 24 h [7]: 100 mg/kg
Activity [15]: 200 µg/min
Activity [8]: 4%
Activity [9]: -6%
Activity [16]: 10 mg/kg

CC(CN(C)C)N1CCN(c2ccccc2)c2ccccc2C1=O (stereo unspecified)
Activity [1]: 12.5%
Activity [3]: 4%
Activity [12]: 50 µg/min
Activity [4]: Non-toxic
Activity [5]: 50 µg/mL
Activity [6]: 50 µg/mL
Activity [14]: 12 mg/kg
LD50 at 24 h [7]: 130 mg/kg
Activity [15]: 160 µg/min
Activity [8]: 20%
Activity [9]: -25%

CNC1=Nc2ccc(Cl)cc2C(c2ccccc2)=[N+]([O-])C1 [CHLORDIAZEPOXIDE]
Activity [3]: -40%
Activity [12]: 20 µg/min
Activity [4]: Non-toxic
Activity [5]: 3 µg/mL
Activity [17]: 90 mg/kg
Activity [6]: 3 µg/mL
LD50 at 24 h [7]: 780 mg/kg
Activity [15]: 18 µg/min
Activity [9]: -50%

O=C1c2ccccc2N(c2ccccc2)CCN1CCN1CCCC1
Activity [1]: 20%
temperature change [2]: -0.2 °C
Activity [3]: -10%
Activity [12]: 50 µg/min
Activity [4]: Non-toxic
Activity [5]: 100 µg/mL
Activity [6]: 50 µg/mL
LD50 at 24 h [7]: 80 mg/kg
Activity [15]: 15 µg/min
Activity [8]: 60%
Activity [9]: -32%

CN(C)CCCN1CCN(c2ccccc2)c2ccccc2C1=O
Activity [1]: 10%
Activity [3]: -15%
Activity [12]: 50 µg/min
Activity [4]: Non-toxic
Activity [5]: 100 µg/mL
Activity [6]: 100 µg/mL
Activity [14]: 10 mg/kg
LD50 at 24 h [7]: 116 mg/kg
Activity [15]: 160 µg/min
Activity [8]: 35%
Activity [9]: -12%

O=C1c2ccccc2N(c2ccccc2)CCN1CCN1CCCCC1
Activity [1]: 20%
temperature change [2]: 1.4 °C
Activity [3]: -11%
Activity [12]: 25 µg/min
Activity [4]: Non-toxic
Activity [5]: 100 µg/mL
Activity [6]: 50 µg/mL
Activity [14]: 25 mg/kg
LD50 at 24 h [7]: 75 mg/kg
Activity [15]: 25 µg/min
Activity [8]: 45%
Activity [9]: -27%
Activity [16]: 10 mg/kg

CN1C(=O)CN=C(c2ccccc2)c2cc(Cl)ccc21 [DIAZEPAM]
Activity [3]: -50%
Activity [4]: Non-toxic
Activity [17]: 50 mg/kg
Activity [6]: 4 µg/mL
Activity [9]: -40%

CC[N+](C)(CC)CCN1CCN(c2ccccc2)c2ccccc2C1=O.[I-]
Activity [1]: 5%
Activity [10]: 20%
temperature change [11]: 1.4 °C
Activity [12]: 15 µg/min
Activity [4]: Non-toxic
Activity [13]: -3%
Activity [5]: 50 µg/mL
Activity [6]: 50 µg/mL
Activity [14]: 5 mg/kg
LD50 at 24 h [7]: 15 mg/kg
Activity [15]: 50 µg/min
Activity [8]: -40%
Activity [16]: 3 mg/kg

O=C1NCCN(c2ccc([N+](=O)[O-])cc2)c2ccc([N+](=O)[O-])cc21
Activity [1]: 50%
temperature change [2]: 1 °C
Activity [3]: -21%
Activity [4]: Non-toxic
Activity [5]: 200 µg/mL
Activity [6]: 200 µg/mL
LD50 at 24 h [7]: > 400 mg/kg
Activity [8]: 40%
Activity [9]: -45%
